The text below walks through data of US12358904B2, “Inhibitors of TYK2” (Atomwise Inc., priority 2023, dated 2025).

In experiment [1] the target is T1, TYK2-JH2 (Homo sapiens, UniProt P29597).
T1 construct: TYK JH2 enzyme mix (ChemPartnec CP20210818A-BV); purchased ChemPartner CP20210818A-BV
Description: TYK2-JH2 HTRF binding assay (ligand efficiency). Particulars: calculated from IC50 of the TYK-JH2 binding assay (Equation 1). The gist of the method: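 His-tagged TYK2 JH2 (0.5 nM) preincubated 10 min at RT with compound (0.1–0.000005 μM) in 20 mM HEPES pH 7.5, 10 mM MgCl2, 0.01% Triton X-100, 1 mM DTT; then 35 nM tracer plus anti-6HIS Tb cryptate, 60 min RT. TR-FRET read (Ex340/Em495/520); IC50 converted to ligand efficiency.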

The subject of experiment [2] is IL-12/pSTAT4. Kind of experiment: IL-12 induced pSTAT4 assay in NK-92 cells. The class given is cell-based. Particulars: Homo sapiens, NK92, IL-12 stimulation, read-out: Cellular potency (IL-12/pSTAT4). The essentials: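 Overnight-starved NK-92 cells (20K/well) pre-incubated with compounds (1000 to 0.05 nM final) 30 min at 37 °C, then stimulated with IL-12 (10 ng/ml) for 30 min at 37 °C. Lysates assayed for pSTAT4 (Tyr693) by MSD electrochemiluminescence.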

The subject of experiment [3] is IL-6/pSTAT3. Description: IL-6 induced pSTAT3 assay in TF-1 cells. Particulars: Homo sapiens, read-out: Cellular selectivity (IL-6/pSTAT3). The class given is cell-based. On the procedure: The following example describes the IL-6 induced pSTAT3 assay used to determine the cellular selectivity (IL-6/pSTAT3) of the TYK2 inhibitors.
TF-1 (ATCC®, CRL-2003™) cells were cultured in RPMI 1640 Medium, with GlutaMAX™ Supplement, HEPES for Cell Culture (Life Technologies, 72400047), 10% Fetal Bovine Serum (Life Technologies, 26400044), 2 ng/mL human recombinant GM-CSF (Life Technologies, PHC2013), 1 mM Sodium pyruvate (Life Technologies, 11360039), 1% MEM NEAA (Life Technologies, 11140-035), 1% Penicillin/Streptomycin (Life Technologies, 15140-122).
TF-1 (70×10^6) cells were starved overnight in T01 50 flasks (Opti-MEM™ I Reduced Serum Medium, no phenol red (Life Technologies, 11058-021), 1 mM Na pyruvate (Life Technologies, 11360039), 1% MEM NEAA (Life Technologies, 11140-035), and 1% Penicillin/Streptomycin (Life Technologies, 15140-122)) then seeded into 96-well TPP plates (150 000 cell/well) and incubated with test compounds (Final Concentration [nM] 10000-0.05) for 30 minutes at 37° C. […] Stimulation was terminated by addition of lysis buffer (MSD K150SVD) and pSTAT3 detection was measured with Phospho-STAT3 (Tyr705) Kit MSD K150SVD)) according to manufacturer's instruction. Briefly, cell lysates were added to pre-blocked plates, sealed, and shake for 1 hour at room temperature. Plates were then washed and incubated with detection antibody for 1 hour at room temperature. After washing, Read Buffer was added, and plates were read on MSD instrument (Model 1300 MSD Quickplex SQ 120).

Experiment [4] has as its system GM-CSF/pSTAT5. Description: GM-CSF induced pSTAT5 assay in CellSensor irf1-bla TF-1 cells. Type of experiment: cell-based. The conditions noted are these: GM-CSF 1 ng/mL; for IC50: Homo sapiens, read-out: Cellular selectivity (GM-CSF induced pSTAT5). Here is the method:
The CellSensor irf1-bla TF-1 cell line (LifeTechnologies, K1657) was cultured in RPMI 1640 Medium (Invitrogen 72400-047), 10% Fetal Bovine Serum (Invitrogen, 26400044), 1 mM Sodium pyruvate (Life Technologies, 11360039), 1% MEM NEAA (Life Technologies, 11140-035), 2 ng/ml of human recombinant GM-CSF (Fisher, PHC2015), 1% Penicillin/Streptomycin (Life Technologies, 15140-122) and 5 μg/ml of Blasticidin (ThermoFisher, A1113903).
The cell line was seeded in a T75 flask at 13×10^6 cells/50 mL in starvation medium (Opti-MEM™ I Reduced Serum Medium, no phenol red (Life Technologies, 11058-021), 1 mM Na pyruvate (Life Technologies, 11360039), 1% MEM NEAA (Life Technologies, 11140-035), and 1% Penicillin/Streptomycin (Life Technologies, 15140-122)) for 16 hours at 37° C. under 5% CO2 the day before the assay.
For the assay, CellSensor irf1-bla TF-1 cells were seeded at 30 000 cells/32 μL (starvation medium)/well in a 384-well plate.
Compounds were added on the cells in 4 μL (starvation medium)/well at 10× the final concentration. They were incubated for 30 minutes at 37° C.
Human recombinant carrier-free GM-CSF (ThermoFisher, ref PHC2015) was added to the wells in 4 μL (starvation medium)/well at 10×. The final concentration was 1 ng/mL. Control wells without GM-CSF treatment were added. Plates were incubated for 5 hours at 37° C.
6× LiveBlazer-FRET substrate (Invitrogen, K1085) was added to the wells at 8 μL/well. The substrate was prepared shortly before use by mixing 6 μL of solution A and 60 μL of solution B to 934 μL of solution C. Plates were incubated for 2.5 hours at room temperature in the dark. The plates were read on an Envision (Perkin Elmer) with an excitation at a wavelength of 409 nm and two wavelengths for the emission 520 nm and 450 nm. The ratio between the […] emission was used to calculate the IC50s.
The IC50 for the inhibition of pSTAT5 was calculated with the Xlfit software using the 4 Parameter Logistic Model or Sigmoidal Dose-Response Model (model 205).

T1 sequence (P29597 589-875 limits assumed): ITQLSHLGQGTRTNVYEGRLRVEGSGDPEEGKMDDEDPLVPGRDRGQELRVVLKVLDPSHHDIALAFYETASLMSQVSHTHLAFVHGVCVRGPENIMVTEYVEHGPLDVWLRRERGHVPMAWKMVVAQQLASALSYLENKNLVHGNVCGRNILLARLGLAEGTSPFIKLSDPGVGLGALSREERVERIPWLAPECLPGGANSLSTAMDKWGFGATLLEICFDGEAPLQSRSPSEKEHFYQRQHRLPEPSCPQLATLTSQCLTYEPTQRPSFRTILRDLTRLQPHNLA

With `C[C@@H](c1ccc(Nc2cc(Nc3ncccc3S(C)(=O)=O)ncn2)nc1C(F)(F)F)N1CC2(COC2)C1` [Compound 11, I-N^4-(5-(1-(2-oxa-6-azaspiro[3.3]heptan-6-yl)ethyl)-6-(trifluoromethyl)90yridine-2-yl)-N^6-(3-(methylsulfonyl)90yridine-2-yl)pyrimidine-4,6-diamine], in experiment [1], the “Ligand Efficiency” value is “†† (††: 0.37-0.39)”. Further, the IC50 in experiment [2] is less than 100 nM; in experiment [3] it was less than 4 µM; in experiment [4], more than 10 µM.
Consider `Cc1nc(Nc2cc(Nc3ncccc3S(C)(=O)=O)ncn2)ccc1[C@H](C)N1CC2(COC2)C1` [Compound 12, N^4-(5-(1-(2-oxa-6-azaspiro[3.3]heptan-6-yl)ethyl)-6-methylpyridin-2-yl)-N^6-(3-(methylsulfonyl)92yridine-2-yl)pyrimidine-4,6-diamine], for which, in experiment [1], the “Ligand Efficiency” value is “††† (†††: >0.39)”. Besides, the IC50 in experiment [2] is less than 100 nM; in experiment [3] it was less than 4 µM; in experiment [4], less than 4 µM.
For the compound `CC(C)[C@@H](c1ccc(Nc2cc(Nc3ncccc3S(C)(=O)=O)ncn2)nc1)N1CC2(COC2)C1` [Compound 13, (S)—N^4-(5-(2-methyl-1-(2-oxa-6-azaspiro[3.3]heptan-6-yl)propyl)pyridine-2-yl)-N^6-(3-(methylsulfonyl)93yridine-2-yl)pyrimidine-4,6-diamine], the “Ligand Efficiency” value in experiment [1] is “†† (††: 0.37-0.39)”. Further, the IC50 is less than 100 nM in experiment [2], 4 to 10 µM in experiment [3] and more than 10 µM in experiment [4].
In the case of `C[C@H](c1ccc(Nc2cc(Nc3ncccc3S(C)(=O)=O)ncn2)nc1)N1CC2(COC2)C1` [Compound 17, I—N^4-(5-(1-(2-oxa-6-azaspiro[3.3]heptan-6-yl)ethyl) 73yridine-2-yl)-N^6-(3-(methylsulfonyl)73yridine-2-yl)pyrimidine-4,6-diamine], in experiment [1], the “Ligand Efficiency” value is listed as “†† (††: 0.37-0.39)”. In addition, the values for the IC50 in experiment [2] and in experiment [3] were less than 100 nM and more than 10 µM, respectively. In addition, in experiment [4], the “Cellular selectivity (GM-CSF induced pSTAT5)” value was “††††”.
Turning to `CS(=O)(=O)c1cccnc1Nc1cc(Nc2cccc(C(F)(F)F)n2)ncn1` [Compound 19, N^4-(3-(methylsulfonyl)100yridine-2-yl)-N^6-(6-(trifluoromethyl) 100yridine-2-yl)pyrimidine-4,6-diamine], the “Ligand Efficiency” value in experiment [1] is “††† (†††: >0.39)”. For the same compound, the IC50 is less than 100 nM in experiment [2], more than 10 µM in experiment [3] and more than 10 µM in experiment [4].
Consider `CC1(Nc2ccc(Nc3cc(Nc4ncccc4S(C)(=O)=O)ncn3)nc2)COC1` [Compound 21, N^4-(5-((3-methyloxetan-3-yl)amino)102yridine-2-yl)-N^6-(3-(methylsulfonyl)102yridine-2-yl)pyrimidine-4,6-diamine], for which the “Ligand Efficiency” value in experiment [1] is given as “††† (†††: >0.39)”. Moreover, the IC50 in experiment [2] is less than 100 nM; in experiment [3], 4 to 10 µM; in experiment [4], more than 10 µM.
Regarding `CC(c1ccc(Nc2cc(Nc3ncccc3S(C)(=O)=O)ncn2)nc1)N1CC(F)C1` (centres unmarked) [Compound 22, N^4-(5-(1-(3-fluoroazetidin-1-yl)ethyl)102yridine-2-yl)-N^6-(3-(methylsulfonyl)102yridine-2-yl)pyrimidine-4,6-diamine], in experiment [1], the “Ligand Efficiency” value is given as “††† (†††: >0.39)”. Further, the IC50 in experiment [2] is less than 100 nM; in experiment [3], 4 to 10 µM; in experiment [4], more than 10 µM.
Take `Cc1cc(Nc2cc(Nc3ncccc3S(C)(=O)=O)ncn2)ncc1NC1(C)COC1` [Compound 23, N^4-(4-methyl-5-((3-methyloxetan-3-yl)amino)103yridine-2-yl)-N^6-(3-(methylsulfonyl)103yridine-2-yl)pyrimidine-4,6-diamine]: the “Ligand Efficiency” value in experiment [1] is given as “††† (†††: >0.39)”. In addition, the IC50 in experiment [2] is less than 100 nM; in experiment [3] it was more than 10 µM; in experiment [4] it was more than 10 µM.
